These results are taken from paper PMC6709783, “Structural Basis for Allosteric Ligand Recognition in the Human CC Chemokine Receptor 7” (Cell, 2019).

In one experiment the target is T1, CCR7 (Homo sapiens, UniProt P32248).
T1 construct: host or cells: CHO-K1 (PathHunter eXpress CCR7 β-Arrestin)
T1 sequence (P32248 25-378): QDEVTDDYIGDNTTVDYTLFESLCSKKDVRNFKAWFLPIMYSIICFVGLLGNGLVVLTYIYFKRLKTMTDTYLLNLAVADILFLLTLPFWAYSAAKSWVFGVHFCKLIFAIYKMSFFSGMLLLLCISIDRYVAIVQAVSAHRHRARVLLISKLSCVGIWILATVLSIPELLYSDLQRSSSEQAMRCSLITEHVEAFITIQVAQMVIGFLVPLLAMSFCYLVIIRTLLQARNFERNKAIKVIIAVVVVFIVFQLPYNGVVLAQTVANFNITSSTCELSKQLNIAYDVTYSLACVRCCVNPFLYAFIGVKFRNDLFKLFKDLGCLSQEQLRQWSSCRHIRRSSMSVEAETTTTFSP
In words: Cellular arrestin recruitment assay (PathHunter eXpress CCR7 CHO-K1 β-Arrestin). It is filed as cell-based. Conditions: agonist concentration used for challenge. The source says: Microplates were read following signal generation with a PerkinElmer Envision™ instrument for chemiluminescent signal detection.
(In general: Arrestin recruitment assays detect the binding of arrestin to an activated receptor.)

Another experiment has as its target T2, human CCR7 (Homo sapiens, UniProt P32248, L145W).
T2 construct: enhanced green fluorescent protein (eGFP) (C); decahistidine-tag (His10) (C); made in house; host or cells: Sf9 insect cells (baculovirus)
T2 sequence (P32248 25-348 L145W): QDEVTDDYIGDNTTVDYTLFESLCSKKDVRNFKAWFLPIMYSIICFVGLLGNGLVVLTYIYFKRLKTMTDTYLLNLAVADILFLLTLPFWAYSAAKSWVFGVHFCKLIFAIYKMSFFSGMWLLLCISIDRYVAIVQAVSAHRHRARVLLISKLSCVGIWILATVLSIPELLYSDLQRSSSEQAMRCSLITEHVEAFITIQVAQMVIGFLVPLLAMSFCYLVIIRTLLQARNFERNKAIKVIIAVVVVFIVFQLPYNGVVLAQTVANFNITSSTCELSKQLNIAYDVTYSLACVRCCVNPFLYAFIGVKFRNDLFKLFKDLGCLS
In words: Thermofluor stability assay (thermal shift, CPM dye) with purified CCR7-L145W. As to conditions: Figure 4B; for thermo-stabilizing effect on CCR7 (in words): known chemokine receptor ligands tested for selectivity of the pocket. The experiment is classed as binding. The method, then: The plate was sealed and incubated for 30 min on ice. A 1:100 (v/v) working solution of the CPM (N-[4-(7-diethylamino-4-methyl-3-coumarinyl)phenyl]maleimide) dye stock (3 mg/mL in DMSO) was prepared and 5.14 μL of this solution were added to each well and mixed thoroughly. Out of each well, 3 × 20 μL were distributed into 0.1 mL Rotor-Gene Q tubes (QIAGEN). […] The gain set was determined at the beginning of the run. The melting temperature (Tm) was calculated from the point of inflection.
All liquid-handling steps were performed using a Bravo automated liquid handling platform and a 96LT head.
Melting temperatures (Tm) in the thermofluor stability assays were calculated and analyzed by automated scripts based on a fit to the Boltzmann equation. Details on significance levels and number of experiments are given in the corresponding figure legends.

Another experiment deals with CCR5 receptor. Conditions: ref Knepp et al., 2011; cited from earlier work.
Experiment [1] deals with T3, CCR7 in PathHunter eXpress CCR7 CHO-K1 β-Arrestin cells (human, UniProt P32248 25-378).
T3 sequence (looked up): T1 sequence (P32248 25-378)
Kind of experiment: cell-based or functional assay.

On to “CCL19: native chemokine agonist of CCR7 (human CCL19)”, for which the “EC80 concentration, arrestin recruitment” value with CCR7 worked out at 57 nM.

Take `CC1(C)CN2C(CSC(=NC3CCCCC3)NC3CCCCC3)=CSC2=N1` [IT1t]: the “thermo-stabilizing effect on CCR7 (in words)” value (“thermo-stabilizing effect” below) on human CCR7 is “did not affect CCR7”. Consider Maraviroc, for which, in the experiment on CCR5 receptor, the “stabilizing effect on CCR5” value was “up to 18.9 °C”. The “thermo-stabilizing effect” value at human CCR7 is on record as “did not affect CCR7”.

As for `CC(C)Cc1ccc([C@@H](C)C(=O)NS(C)(=O)=O)cc1` [Reparixin], the “thermo-stabilizing effect” value at human CCR7 is “Neither did the CXCR2 antagonist Danirixin nor the CXCR1 and CXCR2 antagonist Reparixin stabilize CCR7”.

As for `CCOc1ccc(NC(=O)C2CCN(C3=NS(=O)(=O)C(c4ccc(OC)cc4)=C3C)CC2)cc1` [CS-1], the “stabilizing effect on CCR7” value at human CCR7 (hit from virtual and automated thermofluor screening (50 μM ligand)) was found to be 2.4 °C.

B1: human CCL19 (ligand, UniProt Q99731 22-98, looked up)
chain: GTNDAEDCCLSVTQKPIPGYIVRNFHYLLIKDGCRVPAVVFTTLRGRQLCAPPDQPWVERIIQRLQRTSAKMKRRSS
modifications: radioactive label (2200 Ci/mmole) on the labeled part of the mixture
B1: the “arrestin recruitment in PathHunter eXpress CCR7 CHO-K1 β-Arrestin cells, dose response of CCL19 (EC50)” value in experiment [1] amounted to 12 nM.
